The values below come from PubChem BioAssay AID1259407 (Chemical Carcinogenesis Research Information System (CCRIS), 2018).

The subject of this data set is CCRIS mutagenicity, Ames/micronucleus/aberration tests. The data set is described as follows: CCRIS mutagenicity studies.
[1] abbreviates: Test System: AMES SALMONELLA TYPHIMURIUM, Strain/Indicator: TA98, Metabolic Activation: NONE, Method: PREINCUBATION
The mark [2] stands for this setting: Test System: AMES SALMONELLA TYPHIMURIUM, Strain/Indicator: TA100, Metabolic Activation: NONE, Method: PREINCUBATION
Setting [3] is: Test System: AMES SALMONELLA TYPHIMURIUM, Strain/Indicator: TA1535, Metabolic Activation: NONE, Method: PREINCUBATION
Where [4] appears, read: Test System: AMES SALMONELLA TYPHIMURIUM, Strain/Indicator: TA100, Metabolic Activation: NONE, Method: STANDARD PLATE.
The mark [5] stands for this setting: Test System: AMES SALMONELLA TYPHIMURIUM, Strain/Indicator: TA1535, Metabolic Activation: NONE, Method: STANDARD PLATE.
The mark [6] stands for this setting: Test System: AMES SALMONELLA TYPHIMURIUM, Strain/Indicator: TA98, Metabolic Activation: NONE, Method: STANDARD PLATE.
Setting [7] is: Test System: AMES SALMONELLA TYPHIMURIUM, Strain/Indicator: TA98, Metabolic Activation: RAT, LIVER, S-9, AROCLOR 1254, Method: STANDARD PLATE.
Where [8] appears, read: Test System: AMES SALMONELLA TYPHIMURIUM, Strain/Indicator: TA100, Metabolic Activation: RAT, LIVER, S-9, AROCLOR 1254, Method: STANDARD PLATE.

Activity calls are given as the source filed them. No rule for the calls is given here.

Take `Cc1c[nH]c(=S)[nH]c1=O`: the mutagenic call by setting is: (Test System: AMES SALMONELLA TYPHIMURIUM, Strain/Indicator: TA97, Metabolic Activation: HAMSTER, LIVER, S-9, AROCLOR 1254 (10 OR 30%), Method: PREINCUBATION) “inactive; negative”; (Test System: AMES SALMONELLA TYPHIMURIUM, Strain/Indicator: TA97, Metabolic Activation: NONE, Method: PREINCUBATION) “inactive; negative”; (Test System: AMES SALMONELLA TYPHIMURIUM, Strain/Indicator: TA97, Metabolic Activation: RAT, LIVER, S-9, AROCLOR 1254 (10 OR 30%), Method: PREINCUBATION) “inactive; negative”; (Test System: AMES SALMONELLA TYPHIMURIUM, Strain/Indicator: TA98, Metabolic Activation: HAMSTER, LIVER, S-9, AROCLOR 1254 (10 OR 30%), Method: PREINCUBATION) “inactive; negative”; under setting [1], “inactive; negative”; (Test System: AMES SALMONELLA TYPHIMURIUM, Strain/Indicator: TA98, Metabolic Activation: RAT, LIVER, S-9, AROCLOR 1254 (10 OR 30%), Method: PREINCUBATION) “inactive; negative”. For the same compound, the mutagenic call is “inactive; negative” (Test System: AMES SALMONELLA TYPHIMURIUM, Strain/Indicator: TA100, Metabolic Activation: HAMSTER, LIVER, S-9, AROCLOR 1254 (10 OR 30%), Method: PREINCUBATION); “inactive; negative” under setting [2]; “inactive; negative” (Test System: AMES SALMONELLA TYPHIMURIUM, Strain/Indicator: TA100, Metabolic Activation: RAT, LIVER, S-9, AROCLOR 1254 (10 OR 30%), Method: PREINCUBATION); “inactive; negative” (Test System: AMES SALMONELLA TYPHIMURIUM, Strain/Indicator: TA1535, Metabolic Activation: HAMSTER, LIVER, S-9, AROCLOR 1254 (10 OR 30%), Method: PREINCUBATION); “inactive; negative” under setting [3]; “inactive; negative” (Test System: AMES SALMONELLA TYPHIMURIUM, Strain/Indicator: TA1535, Metabolic Activation: RAT, LIVER, S-9, AROCLOR 1254 (10 OR 30%), Method: PREINCUBATION).

Consider `c1ccc(CCC2CO2)cc1` (configuration not stated), for which the mutagenic call is “active; positive” under setting [2], “active; positive” under setting [4], “active; positive” under setting [3] and “active; positive” under setting [5].

With `NCCNCCN`, the mutagenic call reads like this: (Test System: AMES SALMONELLA TYPHIMURIUM, Strain/Indicator: TA98, Metabolic Activation: HAMSTER, LIVER, S-9, AROCLOR 1254 (10%), Method: PREINCUBATION) “inactive; negative”; under setting [1], “inactive; negative”; under setting [6], “inactive; negative”; (Test System: AMES SALMONELLA TYPHIMURIUM, Strain/Indicator: TA98, Metabolic Activation: RAT LIVER S-9, PHENOBARBITAL AND BETA-NAPHTHOFLAVONE, Method: PREINCUBATION) “inactive; negative”; (Test System: AMES SALMONELLA TYPHIMURIUM, Strain/Indicator: TA98, Metabolic Activation: RAT, LIVER, S-9, AROCLOR 1254 (10%), Method: PREINCUBATION) “inactive; negative”; under setting [7], “inactive; negative”. For the same compound, the mutagenic call runs as follows: (Test System: AMES SALMONELLA TYPHIMURIUM, Strain/Indicator: TA98, Metabolic Activation: RAT, LIVER, S-9, PCB, Method: PREINCUBATION) “inactive; negative”; (Test System: AMES SALMONELLA TYPHIMURIUM, Strain/Indicator: TA100, Metabolic Activation: HAMSTER, LIVER, S-9, AROCLOR 1254 (10%), Method: PREINCUBATION) “inactive; negative”; under setting [2], “inactive; negative”; under setting [4], “inactive; negative”; (Test System: AMES SALMONELLA TYPHIMURIUM, Strain/Indicator: TA100, Metabolic Activation: RAT LIVER S-9, PHENOBARBITAL AND BETA-NAPHTHOFLAVONE, Method: PREINCUBATION) “inactive; negative”; (Test System: AMES SALMONELLA TYPHIMURIUM, Strain/Indicator: TA100, Metabolic Activation: RAT, LIVER, S-9, AROCLOR 1254 (10%), Method: PREINCUBATION) “inactive; negative”. Further, the mutagenic call is “inactive; negative” under setting [8]; “inactive; negative” (Test System: AMES SALMONELLA TYPHIMURIUM, Strain/Indicator: TA100, Metabolic Activation: RAT, LIVER, S-9, PCB, Method: PREINCUBATION); “inactive; negative” (Test System: AMES SALMONELLA TYPHIMURIUM, Strain/Indicator: TA1535, Metabolic Activation: HAMSTER, LIVER, S-9, AROCLOR 1254 (10%), Method: PREINCUBATION); “inactive; negative” under setting [3]; “inactive; negative” under setting [5]; “inactive; negative” (Test System: AMES SALMONELLA TYPHIMURIUM, Strain/Indicator: TA1535, Metabolic Activation: RAT LIVER S-9, PHENOBARBITAL AND BETA-NAPHTHOFLAVONE, Method: PREINCUBATION). Moreover, the mutagenic call by setting is: (Test System: AMES SALMONELLA TYPHIMURIUM, Strain/Indicator: TA1535, Metabolic Activation: RAT, LIVER, S-9, AROCLOR 1254 (10%), Method: PREINCUBATION) “inactive; negative”; (Test System: AMES SALMONELLA TYPHIMURIUM, Strain/Indicator: TA1535, Metabolic Activation: RAT, LIVER, S-9, AROCLOR 1254, Method: STANDARD PLATE) “inactive; negative”; (Test System: AMES SALMONELLA TYPHIMURIUM, Strain/Indicator: TA1537, Metabolic Activation: HAMSTER, LIVER, S-9, AROCLOR 1254 (10%), Method: PREINCUBATION) “inactive; negative”; (Test System: AMES SALMONELLA TYPHIMURIUM, Strain/Indicator: TA1537, Metabolic Activation: NONE, Method: PREINCUBATION) “inactive; negative”; (Test System: AMES SALMONELLA TYPHIMURIUM, Strain/Indicator: TA1537, Metabolic Activation: NONE, Method: STANDARD PLATE) “inactive; negative”; (Test System: AMES SALMONELLA TYPHIMURIUM, Strain/Indicator: TA1537, Metabolic Activation: RAT LIVER S-9, PHENOBARBITAL AND BETA-NAPHTHOFLAVONE, Method: PREINCUBATION) “inactive; negative”. The mutagenic call is “inactive; negative” (Test System: AMES SALMONELLA TYPHIMURIUM, Strain/Indicator: TA1537, Metabolic Activation: RAT, LIVER, S-9, AROCLOR 1254 (10%), Method: PREINCUBATION); “inactive; negative” (Test System: AMES SALMONELLA TYPHIMURIUM, Strain/Indicator: TA1537, Metabolic Activation: RAT, LIVER, S-9, AROCLOR 1254, Method: STANDARD PLATE); “inactive; negative” (Test System: AMES SALMONELLA TYPHIMURIUM, Strain/Indicator: TA1538, Metabolic Activation: NONE, Method: STANDARD PLATE); “inactive; negative” (Test System: AMES SALMONELLA TYPHIMURIUM, Strain/Indicator: TA1538, Metabolic Activation: RAT, LIVER, S-9, AROCLOR 1254, Method: STANDARD PLATE); “inactive; negative” (Test System: CHINESE HAMSTER OVARY, Strain/Indicator: CHO (HGPRT)/6-THIOGUANINE, Metabolic Activation: NONE); “inactive; negative” (Test System: CHINESE HAMSTER OVARY, Strain/Indicator: CHO (HGPRT)/6-THIOGUANINE, Metabolic Activation: RAT, LIVER, S-9, AROCLOR 1254). For the same compound, the mutagenic call was “inactive; negative” (Test System: E.COLI, Strain/Indicator: WP2UVRA/PKM101, Metabolic Activation: NONE, Method: PREINCUBATION); “inactive; negative” (Test System: E.COLI, Strain/Indicator: WP2UVRA/PKM101, Metabolic Activation: RAT LIVER S-9, PHENOBARBITAL AND BETA-NAPHTHOFLAVONE, Method: PREINCUBATION); “inactive; negative” (Test System: UDS RAT HEPATOCYTES, Strain/Indicator: THY INCORP, Metabolic Activation: NONE, Method: SCINTILLATION SPECTROMETRY).

Regarding `c1cc2ccc3cc4ccoc4c4ccc(c1)c2c34`, the mutagenic call was “inactive; negative” under setting [6] and “active; positive” under setting [7].

`CCN(C=O)N=O`: the mutagenic call runs as follows: under setting [5], “active; positive”; (Test System: E. COLI, Strain/Indicator: WU3610, Metabolic Activation: NONE, Method: SUSPENSION/PLATE) “active; positive”.

Consider `C[N+](C)(C)CC(=O)O`, for which the mutagenic call under setting [4] was “inactive; negative” and the mutagenic call under setting [8] is “inactive; negative”.

In the case of `CN(C)C(=S)S`, the mutagenic call is “active; positive” under setting [4] and “inactive; negative” (Test System: AMES SALMONELLA TYPHIMURIUM, Strain/Indicator: TA100, Metabolic Activation: S-9 MIX, Method: STANDARD PLATE).
